Results: US9561228B2 (Celgene Avilomics Research, Inc., priority 2013, dated 2017)

How the values were obtained:
MEK1 activated ERK1 = biological target: T1, MEK1 activated ERK1 (Homo sapiens, UniProt P27361); assay: Omnia continuous-read kinase assay for potency against MEK1 activated ERK1; format: biochemical; details: ATP at KM, WT
T1 construct: purchased Millipore (Billerica, Mass.) 14-439-K
Procedure, shortened: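 Apparent IC50 came from initial reaction slopes (RFU vs time) plotted against log inhibitor with a variable-slope fit. Reactions were started with ERK1 (4 nM final) added to 50 μM ATP, roughly at its appKM, and 10 μM Sox-conjugated ST17 peptide in 20 mM Tris pH 7.5, 5 mM MgCl2. Fluorescence was monitored every 71 seconds.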

Erk1 = biological target: T2, Erk1 (Homo sapiens, UniProt P27361); assay: Protein Mass Modification Assay (intact protein MALDI, 60 min, 10-fold excess of compound); format: binding
T2 construct: purchased Millipore 14-439
T2 sequence (P27361 whole entry): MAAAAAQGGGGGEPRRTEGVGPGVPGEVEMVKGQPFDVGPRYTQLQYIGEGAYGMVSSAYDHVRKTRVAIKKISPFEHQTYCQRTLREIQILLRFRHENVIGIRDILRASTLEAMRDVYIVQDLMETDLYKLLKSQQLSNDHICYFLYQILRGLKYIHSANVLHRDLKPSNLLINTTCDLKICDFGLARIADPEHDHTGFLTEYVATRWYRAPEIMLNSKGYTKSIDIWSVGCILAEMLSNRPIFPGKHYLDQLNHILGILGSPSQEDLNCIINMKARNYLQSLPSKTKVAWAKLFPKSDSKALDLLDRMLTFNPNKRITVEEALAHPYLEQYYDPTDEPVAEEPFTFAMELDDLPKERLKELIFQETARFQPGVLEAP
Procedure, shortened: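 Human Erk1 was incubated 60 min at room temperature with a 10-fold molar excess of compound, then analysed as intact protein by MALDI with sinapinic acid matrix. The centroid mass shift versus untreated protein was divided by compound molecular weight to give percent modified protein.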

[1] = test system: ERK1/2 phosphorylation of p90RSK in HCT116 cells; assay: Detection of total and phospho-RSK by MSD ELISA (HCT116); format: cell-based; details: Homo sapiens, HCT-116, read-out: ERK1/ERK2 PRSK HCT116 EC50
Procedure, shortened: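 HCT116 cells treated with compound in RPMI/10% FBS for 2 h at 37° C, then lysed. Phospho-RSK (Ser380) and total RSK in lysates measured by MSD sandwich electrochemiluminescence ELISA as a readout of ERK1/2 activity.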

T1 sequence (P27361 whole entry): as above

| SMILES | IC50 (MEK1 activated ERK1) | ERK1 Mass Mod (%) (Erk1) | EC50 [1] |
| --- | --- | --- | --- |
| C=CC(=O)Nc1cc(C)ccc1Nc1nc(Nc2cc(OC(C)C)ncc2C)ncc1C(F)(F)F [Compound I-369, N-(2-((2-((2-isopropoxy-5-methylpyridin-4-yl)amino)-5-(trifluoromethyl)pyrimidin-4-yl)amino)-5-methylphenyl)acrylamide] | > 1 µM | F (a mass modification of 31-69%) | > 1 µM |
| C=CC(=O)Nc1ccc(OCC(N)=O)cc1Nc1nc(NC2CCOCC2)ncc1C(F)(F)F [Compound I-395, N-(4-(2-amino-2-oxoethoxy)-2-((2-((tetrahydro-2H-pyran-4-yl)amino)-5-(trifluoromethyl)pyrimidin-4-yl)amino)phenyl)acrylamide] | > 1 µM | E (a mass modification of ≧70%) | > 1 µM |
| C=CC(=O)Nc1cc(C)ccc1Nc1nc(Nc2ccc3ocnc3c2)ncc1C(F)(F)F [Compound I-375, N-(2-((2-(benzo[d]oxazol-5-ylamino)-5-(trifluoromethyl)pyrimidin-4-yl)amino)-5-methylphenyl)acrylamide] | > 1 µM | E (a mass modification of ≧70%) | > 1 µM |
| C=CC(=O)Nc1cc(C)ccc1Nc1nc(Nc2cc(OC)ncc2C(F)F)ncc1C(F)(F)F [Compound I-431, N-(2-((2-((5-(difluoromethyl)-2-methoxypyridin-4-yl)amino)-5-(trifluoromethyl)pyrimidin-4-yl)amino)-5-methylphenyl)acrylamide] | 0.501 to 0.999 µM | E (a mass modification of ≧70%) | 0.501 to 0.999 µM |
| C=CC(=O)Nc1cc(C)ccc1Nc1nc(Nc2cnc(OC)cc2C)ncc1C(F)(F)F [Compound I-350, N-(2-((2-((6-methoxy-4-methylpyridin-3-yl)amino)-5-(trifluoromethyl)pyrimidin-4-yl)amino)-5-methylphenyl)acrylamide] | 0.501 to 0.999 µM | F (a mass modification of 31-69%) | > 1 µM |
| C=CC(=O)Nc1cc(CN2CCN(C)CC2)ccc1Nc1nc(Nc2nc(OC)ncc2C)ncc1C(F)(F)F [Compound I-394, N-(2-((2-((2-methoxy-5-methylpyrimidin-4-yl)amino)-5-(trifluoromethyl)pyrimidin-4-yl)amino)-5-((4-methylpiperazin-1-yl)methyl)phenyl)acrylamide] | 0.101 to 0.5 µM | E (a mass modification of ≧70%) | 0.501 to 0.999 µM |
| C=CC(=O)Nc1cc(C)ccc1Nc1nc(NC2CCC(=O)NC2)ncc1C(F)(F)F (racemic) [Compound I-368, Rac-N-(5-methyl-2-((2-((6-oxopiperidin-3-yl)amino)-5-(trifluoromethyl)pyrimidin-4-yl)amino)phenyl)acrylamide] | 0.101 to 0.5 µM | E (a mass modification of ≧70%) | 0.101 to 0.5 µM |
| C=CC(=O)Nc1cc(OCC(N)=O)ccc1Nc1nc(NC2CCOCC2)ncc1C(F)(F)F [Compound I-387, N-(5-(2-amino-2-oxoethoxy)-2-((2-((tetrahydro-2H-pyran-4-yl)amino)-5-(trifluoromethyl)pyrimidin-4-yl)amino)phenyl)acrylamide] | 0.101 to 0.5 µM | E (a mass modification of ≧70%) | 0.101 to 0.5 µM |
| C=CC(=O)Nc1cc(C)ccc1Nc1nc(Nc2cc(-c3nc[nH]n3)ccc2C)ncc1C(F)(F)F [Compound I-373, N-(5-methyl-2-((2-((2-methyl-5-(1H-1,2,4-triazol-3-yl)phenyl)amino)-5-(trifluoromethyl)pyrimidin-4-yl)amino)phenyl)acrylamide] | > 1 µM | F (a mass modification of 31-69%) | 0.501 to 0.999 µM |
| C=CC(=O)Nc1cc(C)ccc1Nc1nc(Nc2ncc(F)c(OC)n2)ncc1C(F)(F)F [Compound I-356, N-(2-((2-((5-fluoro-4-methoxypyrimidin-2-yl)amino)-5-(trifluoromethyl)pyrimidin-4-yl)amino)-5-methylphenyl)acrylamide] | 0.501 to 0.999 µM | E (a mass modification of ≧70%) | 0.501 to 0.999 µM |
| C=CC(=O)Nc1cc(C)c(F)cc1Nc1nc(Nc2cc(OC)ncc2C)ncc1C(F)(F)F [Compound I-366, N-(4-fluoro-2-((2-((2-methoxy-5-methylpyridin-4-yl)amino)-5-(trifluoromethyl)pyrimidin-4-yl)amino)-5-methylphenyl)acrylamide] | > 1 µM | E (a mass modification of ≧70%) | > 1 µM |

Results, then the compound that gave them:

| IC50 (MEK1 activated ERK1) | ERK1 Mass Mod (%) (Erk1) | EC50 [1] | SMILES |
| --- | --- | --- | --- |
| 0.101 to 0.5 µM | E (a mass modification of ≧70%) | 0.501 to 0.999 µM | C=CC(=O)Nc1cc(C)ccc1Nc1nc(Nc2c[nH]c(=O)cc2C)ncc1C(F)(F)F [Compound I-370, N-(5-methyl-2-((2-((4-methyl-6-oxo-1,6-dihydropyridin-3-yl)amino)-5-(trifluoromethyl)pyrimidin-4-yl)amino)phenyl)acrylamide] |
| < 0.1 µM | E (a mass modification of ≧70%) | < 0.1 µM | C=CC(=O)Nc1cc(CN2CCN(S(C)(=O)=O)CC2)ccc1Nc1nc(Nc2cc(OC)ncc2C)ncc1C(F)(F)F [Compound I-384, N-(2-((2-((2-methoxy-5-methylpyridin-4-yl)amino)-5-(trifluoromethyl)pyrimidin-4-yl)amino)-5-((4-(methylsulfonyl)piperazin-1-yl)methyl)phenyl)acrylamide] |
| < 0.1 µM | E (a mass modification of ≧70%) | < 0.1 µM | C=CC(=O)Nc1cc(OCC(N)=O)ccc1Nc1nc(Nc2cc(OC)ncc2C)ncc1C(F)(F)F [Compound I-398, N-(5-(2-amino-2-oxoethoxy)-2-((2-((2-methoxy-5-methylpyridin-4-yl)amino)-5-(trifluoromethyl)pyrimidin-4-yl)amino)phenyl)acrylamide] |
| 0.101 to 0.5 µM | E (a mass modification of ≧70%) | 0.101 to 0.5 µM | C=CC(=O)Nc1cc(C)ccc1Nc1nc(Nc2nc(OC)ncc2F)ncc1C(F)(F)F [Compound I-357, N-(2-((2-((5-fluoro-2-methoxypyrimidin-4-yl)amino)-5-(trifluoromethyl)pyrimidin-4-yl)amino)-5-methylphenyl)acrylamide] |
| 0.101 to 0.5 µM | E (a mass modification of ≧70%) | 0.101 to 0.5 µM | C=CC(=O)Nc1cc(CN2CCOCC2)ccc1Nc1nc(Nc2cc(OC)ncc2C)ncc1C(F)(F)F [Compound I-399, N-(2-((2-((2-methoxy-5-methylpyridin-4-yl)amino)-5-(trifluoromethyl)pyrimidin-4-yl)amino)-5-(morpholinomethyl)phenyl)acrylamide] |
| < 0.1 µM | E (a mass modification of ≧70%) | 0.101 to 0.5 µM | C=CC(=O)Nc1cc(C)ccc1Nc1nc(Nc2nc(OC)ncc2C)ncc1C(F)(F)F [Compound I-347, N-(2-((2-((2-methoxy-5-methylpyrimidin-4-yl)amino)-5-(trifluoromethyl)pyrimidin-4-yl)amino)-5-methylphenyl)acrylamide] |
| < 0.1 µM | E (a mass modification of ≧70%) | < 0.1 µM | C=CC(=O)Nc1cc(CN2CCN(C(C)=O)CC2)ccc1Nc1nc(Nc2cc(OC)ncc2C)ncc1C(F)(F)F [Compound I-381, N-(5-((4-acetylpiperazin-1-yl)methyl)-2-((2-((2-methoxy-5-methylpyridin-4-yl)amino)-5-(trifluoromethyl)pyrimidin-4-yl)amino)phenyl)acrylamide] |
